Patent US11045509B2, “Tributyrin compositions and methods therefor” (Compound Solutions, Inc., priority 2019, dated 2021)

Key:
Format in all cases: in vivo, human
[1] = test system: Firmicutes to Bacteroidetes (F/B) ratio; assay: collective Firmicutes to Bacteroidetes (F/B) ratio in stool before and after 3-week tributyrin study; conditions: three volunteers, 300 mg tributyrin per day for 3 weeks, stool samples POST vs PRE, FIG. 4
Method: With reference to FIG. 4, the collective ratio of firmicutes to bacteroidetes (F/B ratio) was measured in the stool samples of the three volunteer subjects before and after taking tributyrin daily for three weeks as described in the Examples. The firmicutes and bacteroidetes are each a phylum of bacteria making up the largest portion of the human gut microbiome. In particular the F/B ratio has been reported to be associated with metabolic factors and cardiorespiratory fitness. Durk et al., 2018, Int J Sport Nutr Exerc Metab, 29, 249-253. Accordingly, the inventors contemplate a method of increasing the F/B ratio in the gut of a mammal with the administration of a tributyrin-containing composition to the mammal at a dosage that effectively increases the F/B ratio in the gut of the mammal. […] As such, contemplated compositions are thought to not only selectively improve gut microflora, but also to enhance nutrient uptake. The inventors recruited three volunteers who were asked to provide some basic anthropometric characteristics and lifestyle habits. All volunteer subjects (2 female and 1 male) were free of chronic disease and reported not having taken an antibiotic within the past six months. Body mass index (kg/m^2) analysis classified two of the subjects as “overweight” (BMI>25<30), and one as obese (BMI>30). […]

Bifidobacterium = assay: relative abundance of Bifidobacterium in stool before and after 3-week tributyrin study (16S rRNA); conditions: three volunteers, 300 mg tributyrin per day for 3 weeks, stool sample POST vs PRE, FIG. 1
Description: (§1) The inventors recruited three volunteers who were asked to provide some basic anthropometric characteristics and lifestyle habits. All volunteer subjects (2 female and 1 male) were free of chronic disease and reported not having taken an antibiotic within the past six months. Body mass index (kg/m^2) analysis classified two of the subjects as “overweight” (BMI>25<30), and one as obese (BMI>30). Although activity habits varied, all of the subjects reported weekly participation in light-to-moderate physical activity, and relatively low caffeine intake (<200 mg/day) and alcohol intake (<3 drinks a week). Before the start of the 3-week study, stool samples were collected from each of the 3 volunteers using the commercially available UBiome Explorer kit. The collected stool samples were sent to Ubiome labs (San Francisco, Calif.) where DNA was extracted followed by 16S rRNA gene amplification for bacterial classification. The 3-week study involved each of the volunteers taking 300 milligrams (mg) of tributyrin per day for 3 weeks. Subjects were verbally instructed to maintain usual dietary and physical activity habits throughout the course of the study. At the end of the 3-week period, stool samples were collected following the same protocol, and sent for analysis. […]

Lachnospira = assay: relative abundance of Lachnospira in stool before and after 3-week tributyrin study (16S rRNA); conditions: three volunteers, 300 mg tributyrin per day for 3 weeks, stool sample POST vs PRE, FIG. 3
Description: as §1

Faecalibacterium = assay: relative abundance of Faecalibacterium in stool before and after 3-week tributyrin study (16S rRNA); conditions: three volunteers, 300 mg tributyrin per day for 3 weeks, stool sample POST vs PRE, FIG. 2
Description: as §1

For `CCCC(=O)OCC(COC(=O)CCC)OC(=O)CCC` [tributyrin], the “increase of collective F/B ratio” value [1] was “approximately 50%”, the “increase in relative abundance of Bifidobacterium” value (Bifidobacterium) was 8,841% and the “increase in relative abundance of Lachnospira” value (Lachnospira) was 114%. For the same molecule, the “increase in relative abundance of Faecalibacterium” value (Faecalibacterium) was 29%.
